Source: publication PMC12171880, “Selectivity and Safety Characterization of a Xanthine–Imidazothiazole Lead Structure: a Novel Tryptophan Hydroxylase Inhibitor of Peripheral Serotonin Synthesis” (ACS Pharmacology & Translational Science, 2025)

Key:
human recombinant TPH1 = target: T1, human recombinant TPH1 (Homo sapiens, UniProt P17752); experiment: TPH1 enzymatic activity assay (fluorescence, 96-well); assay type: biochemical
T1 construct: Full-length human TPH1 and TPH2 (UniProt entries P17752 and Q8IWU9); MBP (N); made in house
T1 sequence (P17752 1-444): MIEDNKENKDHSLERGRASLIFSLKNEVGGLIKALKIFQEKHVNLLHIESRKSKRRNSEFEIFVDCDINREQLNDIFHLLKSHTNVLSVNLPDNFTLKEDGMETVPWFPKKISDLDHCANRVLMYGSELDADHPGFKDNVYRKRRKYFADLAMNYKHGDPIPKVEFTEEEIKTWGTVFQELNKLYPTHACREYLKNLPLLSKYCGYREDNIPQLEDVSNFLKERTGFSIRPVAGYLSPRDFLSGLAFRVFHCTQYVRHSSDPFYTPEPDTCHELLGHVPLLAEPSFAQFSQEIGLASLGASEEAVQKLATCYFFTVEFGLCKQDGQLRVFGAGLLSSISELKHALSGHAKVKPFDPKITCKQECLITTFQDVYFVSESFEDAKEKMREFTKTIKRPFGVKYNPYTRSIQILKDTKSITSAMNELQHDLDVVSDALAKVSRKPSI

Sprague–Dawley rats = experiment: Dose-range finding study in rats, clinical chemistry; assay type: in vivo, rat; conditions: for ALT (GPT) / Albumin / Albumin/ globulin ratio / Alkaline phosphatase / Bile acids / Bilirubin total / Calcium / Chloride / Cholesterol / Creatine kinase / Creatinine / GLDH / Globulin / Glucose / Inorganic phosphate / Potassium / Sodium / Total protein / Triglycerides / Urea (BUN): day 8
Procedure: TPT-004 was formulated in 0.5% (w/v) CMC-Na in water and administered by oral gavage (PO) twice daily (b.i.d.) with a 12 h interval to the treatment groups (3 male and 3 female Sprague–Dawley rats each) for 8 days (15 successive applications). Rats were dosed with 10, 45, and 200 mg/kg, i.e., daily doses of 20, 90, and 400 mg/kg. In addition, a control group was dosed at the same frequency as the vehicle (0.5% CMC-Na).
A blood sample of 100 μL was obtained from each rat by puncturing one of the lateral tail veins under short isoflurane anesthesia. Blood was collected in tubes containing lithium heparin and gently mixed. After centrifugation (10 min at 3000g, 4 °C), plasma was separated and stored at −20 °C until LC-MS analysis. In addition, on day 8, the rats were exsanguinated by cardiac puncture under isoflurane anesthesia. A volume of 100 μL of blood (K3-EDTA) was used for immediate cell blood count, while the rest of the blood was mixed with lithium heparin and centrifuged to generate plasma for clinical chemistry analysis.

[1] = tested on: MC38 colorectal carcinoma model; conditions: mouse colorectal carcinoma; previous study; cited from earlier work

## CCn1c(=O)[nH]c(=O)c2c1nc(Cc1cn3cc(C)sc3n1)n2CC1COC1 [TPT-004]
Human recombinant TPH1; 3 nM
  Mean TPH1 activity [%]: 99.51%
Human recombinant TPH1; 3 nM to 10 μM, 15 μM L-Trp, 20 μM BH4
  IC50: 33.4 nM
Human recombinant TPH1; 10 nM
  Mean TPH1 activity [%]: 77.11%
Human recombinant TPH1; 30 nM
  Mean TPH1 activity [%]: 52.25%
Human recombinant TPH1; 100 nM
  Mean TPH1 activity [%]: 21.29%
Human recombinant TPH1; 300 nM
  Mean TPH1 activity [%]: 7.59%
Human recombinant TPH1; 1 μM
  Mean TPH1 activity [%]: 3.62%
Human recombinant TPH1; 3 μM
  Mean TPH1 activity [%]: 3.64%
Human recombinant TPH1; 10 μM
  Mean TPH1 activity [%]: 3.21%
Human recombinant TPH1; 33.38 vs […]
  fold higher TPH1 inhibitory potency (lower IC50) compared to LP778902: ~18
Human recombinant TPH1; supplementary CSV
  IC50: 33 nM
Sprague–Dawley rats; 10 mg/kg PO BID
  ALT (GPT): 49 U/L
  Albumin: 31 g/L
  Albumin/ globulin ratio: 1.33
  Alkaline phosphatase: 402 U/L
  Bile acids: 6.3 µmol/L
  Bilirubin total: 1.7 µmol/L
  Calcium: 2.6 mmol/L
  Chloride: 101 mmol/L
  Cholesterol: 2.25 mmol/L
  Creatine kinase: 406 U/L
  Creatinine: 24 µmol/L
  GLDH: 7 U/L
  Globulin: 23 g/L
  Glucose: 11.2 mmol/L
  Inorganic phosphate: 2.3 mmol/L
  Potassium: 4.7 mmol/L
  Sodium: 143 mmol/L
  Total protein: 54 g/L
  Triglycerides: 1.2 mmol/L
  Urea (BUN): 6.4 mmol/L
Sprague–Dawley rats; 45 mg/kg PO BID
  ALT (GPT): 52 U/L
  Albumin: 30 g/L
  Albumin/ globulin ratio: 1.34
  Alkaline phosphatase: 434 U/L
  Bile acids: 16.6 µmol/L
  Bilirubin total: 1.7 µmol/L
  Calcium: 2.7 mmol/L
  Chloride: 101 mmol/L
  Cholesterol: 2.5 mmol/L
  Creatine kinase: 415 U/L
  Creatinine: 26 µmol/L
  GLDH: 6 U/L
  Globulin: 23 g/L
  Glucose: 12.3 mmol/L
  Inorganic phosphate: 2.4 mmol/L
  Potassium: 4.7 mmol/L
  Sodium: 142 mmol/L
  Total protein: 53 g/L
  Triglycerides: 1.7 mmol/L
  Urea (BUN): 6.0 mmol/L
Sprague–Dawley rats; 200 mg/kg PO BID
  ALT (GPT): 67 U/L
  Albumin: 30 g/L
  Albumin/ globulin ratio: 1.32
  Alkaline phosphatase: 313 U/L
  Bile acids: 20.4 µmol/L
  Bilirubin total: 1.7 µmol/L
  Calcium: 2.6 mmol/L
  Chloride: 101 mmol/L
  Cholesterol: 2.6 mmol/L
  Creatine kinase: 321 U/L
  Creatinine: 24 µmol/L
  GLDH: 7 U/L
  Globulin: 23 g/L
  Glucose: 13.5 mmol/L
  Inorganic phosphate: 2.4 mmol/L
  Potassium: 4.9 mmol/L
  Sodium: 143 mmol/L
  Total protein: 53 g/L
  Triglycerides: 1.4 mmol/L
  Urea (BUN): 7.0 mmol/L
Sprague–Dawley rats; 10, 45, or 200 mg/kg BID PO, 8 days
  clinical chemistry parameters, overall: no relevant difference
[1]
  dose needed to achieve the therapeutic effects: 50 mg/kg BID
